Results on 7 molecules are retold here after DBAASP.

Values after ≈ are worked out from the molar mass of the structure shown. Bounds are passed on as bounds.

Among the test systems are Escherichia coli ML-35p; Bacillus subtilis; Salmonella typhimurium; Candida albicans; Shigella dysenteriae; Pseudomonas aeruginosa; Micrococcus luteus; Serratia marcescens; Proteus mirabilis; Saccharomyces cerevisiae; Escherichia coli; Listeria innocua; Staphylococcus aureus; Pasteurella multocida; Streptococcus uberis; Bacillus cereus; Leuconostoc lactis; Escherichia coli UB1005.

Holding throughout (experiment): ≥ marks a high value that may be exact or a test limit, other limits are often not marked, values filed in µg/mL are converted to µM
The test system of test [1] is Klebsiella pneumoniae ATCC 10031.
Test [2] has as its system Micrococcus luteus ATCC 10240.
In test [3] the test system is Shigella dysenteriae ATCC 9752.
Test [4] concerns Staphylococcus aureus ATCC 6538P.
Test [5] has as its system Staphylococcus epidermidis ATCC 12228.
Test [6] relates to Escherichia coli ATCC 25922.
Test [7] concerns Pseudomonas aeruginosa ATCC 27853.
The test system of test [8] is Bacillus subtilis ATCC 6633.
Test [9] relates to Salmonella enterica subsp. enterica serovar Typhimurium ATCC 14028.
The subject of test [10] is Staphylococcus aureus ATCC 25923.
Test [11] relates to Staphylococcus aureus ATCC 43300.
The test system of test [12] is Candida albicans ATCC 2002.
Test [13] has as its system Pseudomonas aeruginosa PAO1.
Test [14] concerns Staphylococcus epidermidis.
Test [15] deals with Salmonella typhimurium ATCC 7731.
Test [16] concerns Bacillus subtilis CMCC 63501.
Test [17] deals with Staphylococcus aureus ATCC 29213.
In test [18] the test system is Pseudomonas aeruginosa ATCC 15442.
Test [19] deals with Candida albicans ATCC 10231.

A word on the MIC: it is the least concentration at which growth counts as inhibited. A low value points to greater potency. For the molecule `CC(C)C[C@H](NC(=O)[C@H](Cc1c[nH]c2ccccc12)NC(=O)[C@H](CCCCN)NC(=O)[C@H](Cc1ccccc1)NC(=O)[C@H](C)NC(=O)[C@H](Cc1c[nH]c2ccccc12)NC(=O)[C@H](CCCCN)NC(=O)[C@H](C)NC(=O)[C@@H](N)Cc1ccccc1)C(=O)N[C@@H](CCCCN)C(=O)N[C@@H](CCCCN)C(N)=O` [FAKWAFKWLKK], the MIC in test [1] turned out to be 4.34 µM (≈ 6.3 µg/mL); in test [2], 4.34 µM (≈ 6.3 µg/mL); in test [3], 8.6 µM (≈ 12.5 µg/mL); in test [4] it was 4.34 µM (≈ 6.3 µg/mL); in [5], 4.34 µM (≈ 6.3 µg/mL); in test [6], 8.6 µM (≈ 12.5 µg/mL). Besides, the minimum inhibitory concentration (MIC) in test [7] stood at 8.6 µM (≈ 12.5 µg/mL); in test [8] it was 4.34 µM (≈ 6.3 µg/mL); in test [9], 17.2 µM (≈ 25 µg/mL).

As for `CC[C@H](C)[C@H](NC(=O)CNC(=O)[C@H](Cc1c[nH]c2ccccc12)NC(=O)[C@H](CS)NC(=O)[C@H](CO)NC(=O)[C@@H](NC(=O)[C@H](CCC(N)=O)NC(=O)[C@H](Cc1ccccc1)NC(=O)[C@@H]1CCCN1C(=O)[C@@H]1CCCN1C(=O)[C@H](CCCN=C(N)N)NC(=O)[C@H](CCCCN)NC(=O)[C@H](Cc1c[nH]c2ccccc12)NC(=O)[C@@H](NC(=O)[C@H](CCCCN)NC(=O)[C@@H](N)Cc1ccccc1)[C@@H](C)O)[C@@H](C)O)C(=O)N[C@H](C(=O)N[C@@H](CCCCN)C(=O)N[C@@H](CCC(=O)O)C(=O)O)[C@@H](C)CC` [FKTWKRPPFQTSCWGIIKE], the MIC in test [10] is 11.7 µM (≈ 27.5 µg/mL); in test [11], 23.4 µM (≈ 55 µg/mL); in [12], 5.84 µM (≈ 13.8 µg/mL); against Escherichia coli ML-35p, at least 46.8 µM; in test [7], 23.4 µM (≈ 55 µg/mL); in the test with Bacillus subtilis it was at least 46.8 µM. The MIC in test [13] is 23.4 µM (≈ 55 µg/mL).

As for `CC[C@H](C)[C@H](NC(=O)CN)C(=O)N[C@@H](CC(C)C)C(=O)N[C@@H](CC(=O)O)C(=O)N[C@H](C(=O)N[C@@H](CC(C)C)C(=O)N[C@@H](CCCCN)C(=O)N[C@@H](CCC(N)=O)C(=O)N[C@@H](Cc1ccccc1)C(=O)N[C@@H](C)C(=O)N[C@@H](CCCCN)C(=O)NCC(=O)N[C@H](C(=O)NCC(=O)N[C@@H](CCCCN)C(=O)N[C@@H](CC(=O)O)C(=O)N[C@@H](CC(C)C)C(=O)N[C@H](C(=O)N[C@@H](CCCCN)C(=O)NCC(=O)N[C@@H](C)C(=O)N[C@@H](C)C(=O)N[C@@H](CCC(N)=O)C(=O)NCC(=O)N[C@H](C(=O)N[C@@H](CC(C)C)C(=O)N[C@@H](CO)C(=O)O)C(C)C)C(C)C)C(C)C)[C@@H](C)O` [GILDTLKQFAKGVGKDLVKGAAQGVLS], the MIC in the test with Salmonella typhimurium was 27.6 µM (≈ 75 µg/mL); in the test on Candida albicans it was over 36.8 µM; in the test with Shigella dysenteriae, 9.21 µM (≈ 25 µg/mL); in the test on Pseudomonas aeruginosa, 9.21 µM (≈ 25 µg/mL); in test [14] it was 18.4 µM (≈ 50 µg/mL); in the test on Micrococcus luteus, 0.921 µM (≈ 2.5 µg/mL). For the same molecule, the minimal inhibitory concentration (MIC) against Serratia marcescens was at least 36.8 µM; against Proteus mirabilis it was 18.4 µM (≈ 50 µg/mL); with Saccharomyces cerevisiae it was 9.21 µM (≈ 25 µg/mL); with Escherichia coli, 9.21 µM (≈ 25 µg/mL); in the test on Bacillus subtilis it was 18.4 µM (≈ 50 µg/mL).

With `CC[C@H](C)[C@H](NC(=O)[C@@H](NC(=O)[C@H](C)NC(=O)[C@H](Cc1ccccc1)NC(=O)[C@H](CC(C)C)NC(=O)CN)C(C)C)C(=O)N[C@@H](CCCCN)C(=O)N[C@@H](CCCCN)C(=O)N[C@H](C(=O)N[C@@H](C)C(=O)N[C@@H](CO)C(=O)N[C@H](C(=O)N[C@H](C(=O)N[C@@H](CCCCN)C(=O)N[C@@H](CCCCN)C(=O)N[C@@H](CC(C)C)C(N)=O)[C@@H](C)CC)C(C)C)C(C)C` [GLFAVIKKVASVIKKL], the MIC with Listeria innocua was 3.5 µM (≈ 6 µg/mL); against Staphylococcus aureus, 14.6 µM (≈ 25 µg/mL); in [14], 7 µM (≈ 12 µg/mL); against Micrococcus luteus it was 14.6 µM (≈ 25 µg/mL); in the test with Pasteurella multocida, at least 58.3 µM; in the test with Streptococcus uberis, 14.6 µM (≈ 25 µg/mL). For the same molecule, the MIC was 58.3 µM (≈ 99.9 µg/mL) in the test on Escherichia coli, 14.6 µM (≈ 25 µg/mL) against Bacillus cereus and 1.75 µM (≈ 3 µg/mL) in the test with Leuconostoc lactis.

`CC[C@H](C)[C@H](NC(=O)[C@@H](NC(=O)[C@@H]1CCCN1C(=O)[C@@H](NC(=O)[C@@H](NC(=O)[C@H](Cc1cnc[nH]1)NC(=O)[C@@H]1CCCN1C(=O)[C@@H](NC(=O)[C@@H](NC(=O)[C@H](Cc1cnc[nH]1)NC(=O)[C@H](CCCCN)NC(=O)[C@@H](NC(=O)[C@@H](NC(=O)[C@H](CO)NC(=O)CNC(=O)[C@H](CC(C)C)NC(=O)[C@@H](NC(=O)[C@H](CO)NC(=O)[C@H](CC(C)C)NC(=O)[C@H](CC(C)C)NC(=O)CN)C(C)C)C(C)C)C(C)C)C(C)C)[C@@H](C)CC)C(C)C)C(C)C)C(C)C)C(=O)N[C@@H](C)C(=O)N[C@@H](CCC(=O)O)C(=O)N[C@@H](Cc1cnc[nH]1)C(=O)N[C@@H](CC(C)C)C(N)=O` [GLLSVLGSVVKHVIPHVVPVIAEHL]: the MIC against Listeria innocua amounted to 19.1 µM (≈ 50 µg/mL); against Staphylococcus aureus, 9.57 µM (≈ 25 µg/mL); in [14], 9.57 µM (≈ 25 µg/mL); in the test on Micrococcus luteus, 4.59 µM (≈ 12 µg/mL); with Pasteurella multocida, 9.57 µM (≈ 25 µg/mL); against Streptococcus uberis, 19.1 µM (≈ 50 µg/mL). For the same molecule, the MIC is over 38.3 µM against Escherichia coli, 19.1 µM (≈ 50 µg/mL) against Bacillus cereus and 1.15 µM (≈ 3 µg/mL) with Leuconostoc lactis.

For `CC[C@H](C)[C@H](NC(=O)CNC(=O)[C@H](C)NC(=O)[C@H](C)NC(=O)[C@@H](NC(=O)[C@@H](NC(=O)[C@H](CC(N)=O)NC(=O)[C@@H](NC(=O)[C@H](C)NC(=O)[C@@H](NC(=O)[C@@H]1CCCN1C(=O)[C@@H](NC(=O)[C@H](CC(C)C)NC(=O)[C@@H]1CCCN1C(=O)[C@H](Cc1c[nH]c2ccccc12)NC(=O)[C@H](Cc1ccccc1)NC(=O)[C@H](CCCN=C(N)N)NC(=O)[C@@H](N)CCCCN)C(C)C)C(C)C)[C@@H](C)CC)[C@@H](C)O)C(C)C)C(=O)N[C@@H](CC(N)=O)C(N)=O` [KRFWPLVPVAINTVAAGIN], the MIC is at least 128 µM in [15]; at least 128 µM in [16]; over 128 µM in test [5]; at least 128 µM in the test with Escherichia coli UB1005; over 128 µM in test [17]; over 128 µM in [6]. The MIC in test [7] and in [9] was over 128 µM each time.

Turning to `CC[C@H](C)[C@H](NC(=O)[C@H](C)NC(=O)[C@@H](N)C(C)C)C(=O)N[C@@H](C)C(=O)N[C@@H](CC(C)C)C(=O)N[C@@H](CCCCN)C(=O)N[C@@H](C)C(=O)N[C@@H](C)C(=O)N[C@@H](Cc1cnc[nH]1)C(=O)N[C@@H](Cc1ccc(O)cc1)C(=O)N[C@@H](Cc1cnc[nH]1)C(=O)N[C@H](C(=O)N[C@@H](C)C(=O)N[C@@H](CCCCN)C(=O)N[C@@H](CCC(=O)O)C(=O)O)[C@@H](C)O` [VAIALKAAHYHTAKE], the MIC in [18] is at least 78.9 µM; in test [17] it was 0.154 µM (≈ 0.25 µg/mL); in test [19] it was 78.9 µM (≈ 128 µg/mL).
